Experimental data published in patent US20100260680A1, “NOVEL BONE MASS INCREASING AGENT” (ORIENTAL YEAST CO., LTD., priority 2007, published 2010).
Bridges are numbered along the chain shown (N, C = ends). Where no end group is shown, it is not given here.

How the values were obtained:
MC3T3-E1 cells = experiment: ALP activity determination in MC3T3-E1 cells; assay type: cell-based, mouse
Protocol: Seven days after differentiation, the culture supernatant was removed from each plate and the cells were fixed with an acetone/ethanol solution. The ALP activity was determined using p-nitrophenyl phosphate as a substrate. Specifically, a carbonate buffer (5 mM MgCl2, 50 mM NaHCO3) containing p-nitrophenyl phosphate (Nacalai) (1 mg/mL) was added to each well (100 μL/well), followed by incubation at 37° C. Then, the OD value at 405 nm was determined with the use of a microplate reader (BMG Labtech) for each well.
Cells mixed with 10% FBS+αMEM (GIBCO) were seeded on a 96-well plate (8×10^3 cells/well) and a 48-well plate (2×10^4 cells/well). The culture supernatant of each plate was replaced with 10% FBS+αMEM containing 5 mM β glycerophosphoric acid (SIGMA)+10 μg/mL sodium ascorbate (SIGMA) 48 hours later. Then, the medium was replaced with new medium every 3 or 4 days. As a control, MC3T3-E1 was cultured with the use of 10% FBS+αMEM as a maintenance medium. Upon medium replacement, a peptide was added to each plate at a concentration of 300 μM, ALP activity determination and alizarin red S staining were carried out by the method described in Example 1 on Days 7 and 21.
MC3T3-E1 cells mixed with 10% FBS+αMEM (SIGMA) were seeded on a 96-well plate (1.5×10^4 cells/well). After 12 hours, the medium was removed therefrom and a medium containing an SB203580 p38 inhibitor (Calbiochem) was added thereto. […] Then, ALP activity determination was carried out by the method described in Example 1.
Similarly, rhDkk-1 (R&D) was added as a Wnt antagonist at concentrations of 0.25, 0.5, and 1 μg/ml. After 1 hour, 200 μM peptide D was added thereto, followed by culture for 5 days. Then, ALP activity determination was carried out by the method described in Example 1.
In addition, as described above, BMPR-IA (R&D) was added as a BMP antagonist at concentrations of 0.25 and 1 μg/ml. […] Then, ALP activity determination was carried out by the method described in Example 1. […] Based on the above results, it was likely that actions of peptide D depend on BMP induction or BMP produced constantly and spontaneously by cells.
MC3T3-E1 cells mixed with 10% FBS+α MEM (SIGMA) were seeded on a 96-well plate (1.5×10^4 cells/well).
Further, peptide D and peptide E were compared with each other in terms of ALP activity enhancement actions in MC3T3-E1 cells. Peptide D and peptide E were used at concentrations of 25, 50, 100, and 200 μM for culture under the conditions described in Example 14, followed by determination of ALP activity by the method described in Example 1.
MC3T3-E1 cells (mouse osteoblast precursor cells) mixed with 10% FBS+αMEM (SIGMA) were seeded on a 96-well plate (2×10^4 cells/well). After cell adhesion, the medium was removed therefrom, followed by ALP activity determination in the cases involving the addition of 50 and 150 μM peptide D (acetate and hydrochloride). […] On Day 5 after the addition of the individual factors, the culture supernatant was removed, followed by ALP activity determination by the method described in Example 1.
MC3T3-E1 cells (mouse osteoblast precursor cells) mixed with 10% FBS+αMEM (SIGMA) were seeded on a 96-well plate (2×10^4 cells/well). After cell adhesion had taken place, the medium was removed therefrom, followed by determination of ALP activity in the cases involving the mixing of 5 ng/mLBMP-2 (produced by CHO cells) with 6.25, 12.5, 25, 50, and 100 μM synthetic peptide D. On Day 5 after the addition of the individual factors, the culture supernatant was removed, followed by ALP activity determination by the method described in Example 1.
At the end of the experiment, synergistic effects of synthetic peptide D in the form of acetate and BMP-4 (R&D) were also examined. MC3T3-E1 cells (mouse osteoblast precursor cells) mixed with 10% FBS+αMEM (SIGMA) were seeded on a 96-well plate (2×10^4 cells/well). […]

[1] = test system: Human mesenchymal stem cells; experiment: Alizarin red S staining (calcification) of human mesenchymal stem cells; assay type: cell-based; conditions: 300 μM; Day 21; regardless of induction of differentiation
Protocol: On Day 21 after differentiation, the cells were washed with PBS, followed by fixation with a 10% neutral buffer formalin solution.
The cells were washed with water after removal of the fixative solution. A 1% alizarin red S stain solution (Nacalai) (150 μL) was added thereto. The plate was left at room temperature for 3 minutes. Thereafter, the stain solution was discarded, followed by washing with water and drying. Then, microscopic observation was carried out.
Human mesenchymal stem cells were cultured in the same manner as in Example 1. Peptide D (300 μM) was added to human mesenchymal stem cells.

C57BL/6CrjCrlj mice = experiment: Bone morphology measurement with calcein labeling after peptide D administration; assay type: in vivo, mouse; conditions: region 5 mm away from the distal end of the femur
Protocol: In the experiment in Example 11 in which synthetic peptide D had been administered to mice, calcein (Nacalai) mixed with 2% hydrogen carbonate/ethanol aqueous solution was intraperitoneally administered in doses of 0.01 mL/g (weight) to individual mice of each group for calcein labeling on Days 1 and 4 after the initiation of administration of synthetic peptide D. A region located 5 mm away from the ethanol-fixed distal end of the femur collected from each mouse upon dissection was embedded in a methylmethacrylate (MMA) resin so that a non-decalcified specimen was prepared. […] As a result, in the group treated with peptide D, increases in calcification rate and osteogenesis rate were observed (FIGS. 25A and 25B).

[2] = test system: Human mesenchymal stem cells; experiment: ALP staining of human mesenchymal stem cells; assay type: cell-based; conditions: Day 7 after differentiation; compared with the control group
Protocol: Peptide D was added at a concentration of 300 μM during differentiation. On Day 7, cells were fixed with a 10% neutral buffer formalin solution, followed by re-fixation with an acetone/ethanol solution.
A stain solution (500 μL) prepared with the composition described below was added to the cells, followed by incubation at 37° C. for 10 minutes, washing with water, and drying.
Naphthol AS-MX phosphate (SIGMA): 5 mg
Fast blue hemi-salt (SIGMA): 30 mg

peptide D: cyclic peptide of SEQ ID NO: 7, 9 amino acids, two cysteine residues bound via a disulfide bond; binds to RANKL (YCWSQYLCY; disulfide 2-8 (inferred))
ALP activity (MC3T3-E1 cells; 150 μM peptide D combined with 30 ng/mL BMP-2): additive actions of ALP activity enhancement
ALP activity (MC3T3-E1 cells; 300 μM, Day 7 after differentiation): significantly increased
ALP activity (MC3T3-E1 cells; 25, 50, 100 and 200 μM, 5 days): enhance ALP activity in a concentration-dependent manner
ALP activity, peptide D compared with peptide E (MC3T3-E1 cells; 50 and 100 μM): significant enhancement actions compared with peptide E
alizarin red staining (calcification) [1]: strong degree of alizarin red staining
calcification rate (C57BL/6CrjCrlj mice): increases
osteogenesis rate (bone formation rate) (C57BL/6CrjCrlj mice): increases
ALP staining [2]: observed in a concentration-dependent manner
